# According to patent publication US7122577B1, “Composition comprising a carrier and a purified mycobacterial lipid cell-wall component and its use in the treatment and diagnosis of disease” (priority 1997, dated 2006):
# Test system: adjuvant arthritis
# Conditions: rat, in vivo
substance,measurement,value
mycolic acids [MA tb],Toxic effects,No toxic effects
same,Toxic effects within the tested doses,No toxic effects
